From patent US6914045B2, “Glycopeptide antibiotics” (Wyeth Holdings Corporation, priority 2001, dated 2005)
≈ marks a conversion by molar mass, not a printed value. Values belong to the molecule of their own block, whether it stands above or below them.

Key:
Experiment in all cases: in vitro antibacterial evaluation, MIC by broth dilution
Assay type in all cases: cell-based
Staphylococcus sp. = settings: broth dilution, 18 hours at 35° C.
Method in brief: (§1)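 Test organisms, which included recent clinical isolates resistant to methicillin, penicillin and/or vancomycin, were inoculated at 5×10^5 CFU/mL into Muller-Hinton II […] containing antibiotic at 64-0.06 μg/mL. Minimum inhibitory concentrations were then read as the lowest level inhibiting growth.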

Streptococcus sp. = settings: broth dilution, 18 hours at 35° C.; for MIC Streptococcus agalactiae (GC 4564): strain GC 4564
Method in brief: as §1

Enterococcus sp. = settings: broth dilution, 18 hours at 35° C.; for MIC Enterococcus faecalis (GC 2242): strain GC 2242; for MIC Enterococcus faecalis (GC 4552): strain GC 4552
Method in brief: as §1

Escherichia coli = settings: 18 hours at 35° C.
Method in brief: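 Step 1: dilute antibiotic across 64-0.06 μg/mL in Muller-Hinton II […]. Step 2: inoculate at 5×10^5 CFU/mL.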

[1] = Enterococcus faecalis (ATCC 29212)
[2] = Enterococcus faecalis (GC 4553)
[3] = Enterococcus faecalis (GC 4554)

MIC Coagulase Negative Staphylococcus (GC 4547) (Staphylococcus sp.): 4 µg/mL (≈ 2.79 µM)
MIC Coagulase Negative Staphylococcus (GC 4548) (Staphylococcus sp.): 4 µg/mL (≈ 2.79 µM)
MIC Coagulase Negative Staphylococcus (GC 4549) (Staphylococcus sp.): 4 µg/mL (≈ 2.79 µM)
MIC Coagulase Negative Staphylococcus (GC 4551) (Staphylococcus sp.): 4 µg/mL (≈ 2.79 µM)
MIC Staphylococcus aureus (ATCC 29213) (Staphylococcus sp.): 8 µg/mL (≈ 5.57 µM)
MIC Staphylococcus aureus (GC 1131) (Staphylococcus sp.): 8 µg/mL (≈ 5.57 µM)
MIC Staphylococcus aureus (GC 4541) (Staphylococcus sp.): 8 µg/mL (≈ 5.57 µM)
MIC Staphylococcus aureus (GC 4542) (Staphylococcus sp.): 8 µg/mL (≈ 5.57 µM)
MIC Staphylococcus aureus (GC 4544) (Staphylococcus sp.): 8 µg/mL (≈ 5.57 µM)
MIC Staphylococcus aureus (GC 4545) (Staphylococcus sp.): 4 µg/mL (≈ 2.79 µM)
MIC Staphylococcus aureus-SMITH (GC 4543) (Staphylococcus sp.): 4 µg/mL (≈ 2.79 µM)
MIC Staphylococcus aureus (ATCC 29213) (Staphylococcus sp.; strain ATCC 29213): 8 µg/mL (≈ 5.57 µM)
MIC Staphylococcus aureus (GC 1131) (Staphylococcus sp.; strain GC 1131): 8 µg/mL (≈ 5.57 µM)
MIC Staphylococcus aureus (GC 4541) (Staphylococcus sp.; strain GC 4541): 8 µg/mL (≈ 5.57 µM)
MIC Staphylococcus aureus (GC 4542) (Staphylococcus sp.; strain GC 4542): 8 µg/mL (≈ 5.57 µM)
MIC Staphylococcus aureus (GC 4544) (Staphylococcus sp.; strain GC 4544): 8 µg/mL (≈ 5.57 µM)
MIC Staphylococcus aureus (GC 4545) (Staphylococcus sp.; strain GC 4545): 4 µg/mL (≈ 2.79 µM)
MIC Coagulase Negative Staphylococcus (GC 4547) (Staphylococcus sp.; strain GC 4547): 4 µg/mL (≈ 2.79 µM)
MIC Coagulase Negative Staphylococcus (GC 4548) (Staphylococcus sp.; strain GC 4548): 4 µg/mL (≈ 2.79 µM)
MIC Coagulase Negative Staphylococcus (GC 4549) (Staphylococcus sp.; strain GC 4549): 4 µg/mL (≈ 2.79 µM)
MIC Coagulase Negative Staphylococcus (GC 4551) (Staphylococcus sp.; strain GC 4551): 4 µg/mL (≈ 2.79 µM)
MIC Staphylococcus aureus-SMITH (GC 4543) (Staphylococcus sp.; strain SMITH GC 4543): 4 µg/mL (≈ 2.79 µM)
MIC Streptococcus agalactiae (GC 4564) (Streptococcus sp.): 2 µg/mL (≈ 1.39 µM)
MIC Streptococcus pyogenes (ID-3187) (Streptococcus sp.; strain ID-3187): 2 µg/mL (≈ 1.39 µM)
MIC Enterococcus avium (GC 4558) (Enterococcus sp.; Enterococcus avium (GC 4558)): 32 µg/mL (≈ 22.3 µM)
MIC Enterococcus faecalis (ATCC 29212) (Enterococcus sp.; [1]): 32 µg/mL (≈ 22.3 µM)
MIC Enterococcus faecalis (GC 4553) (Enterococcus sp.; [2]): 32 µg/mL (≈ 22.3 µM)
MIC Enterococcus faecalis (GC 4554) (Enterococcus sp.; [3]): 32 µg/mL (≈ 22.3 µM)
MIC Enterococcus faecium (GC 2243) (Enterococcus sp.; Enterococcus faecium (GC 2243)): 32 µg/mL (≈ 22.3 µM)
MIC Enterococcus faecium (GC 4556) (Enterococcus sp.; Enterococcus faecium (GC 4556)): 32 µg/mL (≈ 22.3 µM)
MIC Enterococcus faecium (GC 4557) (Enterococcus sp.; Enterococcus faecium (GC 4557)): 8 µg/mL (≈ 5.57 µM)
MIC Enterococcus faecalis (ATCC 29212) (Enterococcus sp.; strain ATCC 29212): 32 µg/mL (≈ 22.3 µM)
MIC Enterococcus faecalis (GC 2242) (Enterococcus sp.): 16 µg/mL (≈ 11.1 µM)
MIC Enterococcus faecium (GC 2243) (Enterococcus sp.; strain GC 2243): 32 µg/mL (≈ 22.3 µM)
MIC Enterococcus faecalis (GC 4552) (Enterococcus sp.): 32 µg/mL (≈ 22.3 µM)
MIC Enterococcus faecalis (GC 4553) (Enterococcus sp.; strain GC 4553): 32 µg/mL (≈ 22.3 µM)
MIC Enterococcus faecalis (GC 4554) (Enterococcus sp.; strain GC 4554): 32 µg/mL (≈ 22.3 µM)
MIC Enterococcus faecium (GC 4556) (Enterococcus sp.; strain GC 4556): 32 µg/mL (≈ 22.3 µM)
MIC Enterococcus faecium (GC 4557) (Enterococcus sp.; strain GC 4557): 8 µg/mL (≈ 5.57 µM)
MIC Enterococcus avium (GC 4558) (Enterococcus sp.; strain GC 4558): 32 µg/mL (≈ 22.3 µM)
MIC Escherichia coli (ATCC 25922) (Escherichia coli): >64 µg/mL
MIC Escherichia coli (GC 4559) (Escherichia coli): >64 µg/mL
MIC Escherichia coli (GC 4560) (Escherichia coli): 4 µg/mL (≈ 2.79 µM)
SMILES: CC(=O)OCC1OC(OC2C(CO)OC(Oc3ccc(CC4NC(=O)C(C(C)c5ccccc5)NC(=O)CNC(=O)C(CO)NC(=O)C(C(O)C5CNC(=N)N5C5OC(CO)C(O)C(O)C5O)NC(=O)C(C(O)C5CNC(=N)N5)NC4=O)cc3)C(O)C2O)C(O)C(OC(=O)CCC(C)C)C1O (stereo not drawn) [Example 270b, Cyclo[glycyl-β-methylphenylalanyl-O-[4-O-[6-O-acetyl-3-O-(4-methylpentanoyl)hexopyranosyl]hexopyranosyl]tyrosyl-3-(2-iminoimidazolidin-4-yl)seryl-3-(3-hexopyranosyl-2-iminoimidazolidin-4-yl)serylseryl]]
MIC Staphylococcus haemolyticus (GC 4546) (Staphylococcus sp.): 4 µg/mL (≈ 2.79 µM)
MIC Staphylococcus haemolyticus (GC 4546) (Staphylococcus sp.; strain GC 4546): 4 µg/mL (≈ 2.79 µM)

MIC Coagulase Negative Staphylococcus (GC 4547) (Staphylococcus sp.): 4 µg/mL (≈ 2.9 µM)
MIC Coagulase Negative Staphylococcus (GC 4548) (Staphylococcus sp.): 4 µg/mL (≈ 2.9 µM)
MIC Coagulase Negative Staphylococcus (GC 4549) (Staphylococcus sp.): 2 µg/mL (≈ 1.45 µM)
MIC Coagulase Negative Staphylococcus (GC 4551) (Staphylococcus sp.): 8 µg/mL (≈ 5.81 µM)
MIC Coagulase Negative Staphylococcus (GC 6257) (Staphylococcus sp.): 2 µg/mL (≈ 1.45 µM)
MIC Staphylococcus aureus (ATCC 29213) (Staphylococcus sp.): 8 µg/mL (≈ 5.81 µM)
MIC Staphylococcus aureus (GC 1131) (Staphylococcus sp.): 8 µg/mL (≈ 5.81 µM)
MIC Staphylococcus aureus (GC 3051) (Staphylococcus sp.): 4 µg/mL (≈ 2.9 µM)
MIC Staphylococcus aureus (GC 3053) (Staphylococcus sp.): 8 µg/mL (≈ 5.81 µM)
MIC Staphylococcus aureus (GC 4541) (Staphylococcus sp.): 8 µg/mL (≈ 5.81 µM)
MIC Staphylococcus aureus (GC 4542) (Staphylococcus sp.): 8 µg/mL (≈ 5.81 µM)
MIC Staphylococcus aureus (GC 4544) (Staphylococcus sp.): 8 µg/mL (≈ 5.81 µM)
MIC Staphylococcus aureus (GC 4545) (Staphylococcus sp.): 4 µg/mL (≈ 2.9 µM)
MIC Staphylococcus aureus-SMITH (GC 4543) (Staphylococcus sp.): 8 µg/mL (≈ 5.81 µM)
MIC Staphylococcus aureus (ATCC 29213) (Staphylococcus sp.; strain ATCC 29213): 8 µg/mL (≈ 5.81 µM)
MIC Staphylococcus aureus (GC 1131) (Staphylococcus sp.; strain GC 1131): 8 µg/mL (≈ 5.81 µM)
MIC Staphylococcus aureus (GC 3051) (Staphylococcus sp.; strain GC 3051): 4 µg/mL (≈ 2.9 µM)
MIC Staphylococcus aureus (GC 3053) (Staphylococcus sp.; strain GC 3053): 8 µg/mL (≈ 5.81 µM)
MIC Staphylococcus aureus (GC 4541) (Staphylococcus sp.; strain GC 4541): 8 µg/mL (≈ 5.81 µM)
MIC Staphylococcus aureus (GC 4542) (Staphylococcus sp.; strain GC 4542): 8 µg/mL (≈ 5.81 µM)
MIC Staphylococcus aureus (GC 4544) (Staphylococcus sp.; strain GC 4544): 8 µg/mL (≈ 5.81 µM)
MIC Staphylococcus aureus (GC 4545) (Staphylococcus sp.; strain GC 4545): 4 µg/mL (≈ 2.9 µM)
MIC Coagulase Negative Staphylococcus (GC 4547) (Staphylococcus sp.; strain GC 4547): 4 µg/mL (≈ 2.9 µM)
MIC Coagulase Negative Staphylococcus (GC 4548) (Staphylococcus sp.; strain GC 4548): 4 µg/mL (≈ 2.9 µM)
MIC Coagulase Negative Staphylococcus (GC 4549) (Staphylococcus sp.; strain GC 4549): 2 µg/mL (≈ 1.45 µM)
MIC Coagulase Negative Staphylococcus (GC 4551) (Staphylococcus sp.; strain GC 4551): 8 µg/mL (≈ 5.81 µM)
MIC Coagulase Negative Staphylococcus (GC 6257) (Staphylococcus sp.; strain GC 6257): 2 µg/mL (≈ 1.45 µM)
MIC Staphylococcus aureus-SMITH (GC 4543) (Staphylococcus sp.; strain SMITH GC 4543): 8 µg/mL (≈ 5.81 µM)
MIC Streptococcus pneumoniae (ATCC 6301) (Streptococcus sp.; strain ATCC 6301): 1 µg/mL (≈ 0.726 µM)
MIC Streptococcus pneumoniae (GC 1894) (Streptococcus sp.; strain GC 1894): 1 µg/mL (≈ 0.726 µM)
MIC Streptococcus pyogenes (GC 4563) (Streptococcus sp.; strain GC 4563): 2 µg/mL (≈ 1.45 µM)
MIC Streptococcus agalactiae (GC 4564) (Streptococcus sp.): 4 µg/mL (≈ 2.9 µM)
MIC Streptococcus pneumoniae (GC 4565) (Streptococcus sp.; strain GC 4565): 2 µg/mL (≈ 1.45 µM)
MIC Enterococcus avium (GC 4558) (Enterococcus sp.; Enterococcus avium (GC 4558)): 32 µg/mL (≈ 23.2 µM)
MIC Enterococcus faecalis (ATCC 29212) (Enterococcus sp.; [1]): 32 µg/mL (≈ 23.2 µM)
MIC Enterococcus faecalis (GC 4553) (Enterococcus sp.; [2]): 32 µg/mL (≈ 23.2 µM)
MIC Enterococcus faecalis (GC 4554) (Enterococcus sp.; [3]): 32 µg/mL (≈ 23.2 µM)
MIC Enterococcus faecalis (GC 6189) (Enterococcus sp.; Enterococcus faecalis (GC 6189)): 32 µg/mL (≈ 23.2 µM)
MIC Enterococcus faecium (GC 2243) (Enterococcus sp.; Enterococcus faecium (GC 2243)): 32 µg/mL (≈ 23.2 µM)
MIC Enterococcus faecium (GC 4556) (Enterococcus sp.; Enterococcus faecium (GC 4556)): 32 µg/mL (≈ 23.2 µM)
MIC Enterococcus faecium (GC 4557) (Enterococcus sp.; Enterococcus faecium (GC 4557)): 8 µg/mL (≈ 5.81 µM)
MIC Enterococcus faecalis (ATCC 29212) (Enterococcus sp.; strain ATCC 29212): 32 µg/mL (≈ 23.2 µM)
MIC Enterococcus faecalis (GC 2242) (Enterococcus sp.): 32 µg/mL (≈ 23.2 µM)
MIC Enterococcus faecium (GC 2243) (Enterococcus sp.; strain GC 2243): 32 µg/mL (≈ 23.2 µM)
MIC Enterococcus faecalis (GC 2691) (Enterococcus sp.; strain GC 2691): 32 µg/mL (≈ 23.2 µM)
MIC Enterococcus faecalis (GC 3059) (Enterococcus sp.; strain GC 3059): 64 µg/mL (≈ 46.5 µM)
MIC Enterococcus faecalis (GC 4552) (Enterococcus sp.): 32 µg/mL (≈ 23.2 µM)
MIC Enterococcus faecalis (GC 4553) (Enterococcus sp.; strain GC 4553): 32 µg/mL (≈ 23.2 µM)
MIC Enterococcus faecalis (GC 4554) (Enterococcus sp.; strain GC 4554): 32 µg/mL (≈ 23.2 µM)
MIC Enterococcus faecium (GC 4556) (Enterococcus sp.; strain GC 4556): 32 µg/mL (≈ 23.2 µM)
MIC Enterococcus faecium (GC 4557) (Enterococcus sp.; strain GC 4557): 8 µg/mL (≈ 5.81 µM)
MIC Enterococcus avium (GC 4558) (Enterococcus sp.; strain GC 4558): 32 µg/mL (≈ 23.2 µM)
MIC Enterococcus faecalis (GC 6189) (Enterococcus sp.; strain GC 6189): 32 µg/mL (≈ 23.2 µM)
MIC Escherichia coli (ATCC 25922) (Escherichia coli): >64 µg/mL
MIC Escherichia coli (GC 4559) (Escherichia coli): >64 µg/mL
MIC Escherichia coli (GC 4560) (Escherichia coli): 4 µg/mL (≈ 2.9 µM)
SMILES: CC=C(C)C(=O)OC1C(CO)OC(OC2C(CO)OC(Oc3ccc(CC4NC(=O)C(C(C)c5ccccc5)NC(=O)CNC(=O)C(CO)NC(=O)C(C(O)C5CNC(=N)N5C5OC(CO)C(O)C(O)C5O)NC(=O)C(C(O)C5CNC(=N)N5)NC4=O)cc3)C(O)C2O)C(O)C1O (stereo not drawn) [Example 278b, Cyclo[glycyl-β-methylphenylalanyl-O-[4-O-[4-O-(2-methylbut-2-enoyl)hexopyranosyl]-hexopyranosyl]tyrosyl-3-(2-iminoimidazolidin-4-yl)seryl-3-(3-hexopyranosyl-2-imino-imidazolidin-4-yl)serylseryl]]
MIC Staphylococcus haemolyticus (GC 4546) (Staphylococcus sp.): 4 µg/mL (≈ 2.9 µM)
MIC Staphylococcus haemolyticus (GC 4546) (Staphylococcus sp.; strain GC 4546): 4 µg/mL (≈ 2.9 µM)
